Experimental data taken from patent publication US9556207B2, “Pyrazole compounds, compositions and methods for treatment of degenerative diseases and disorders” (MUSC FOUNDATION FOR RESEARCH DEVELOPMENT, priority 2013, dated 2017).

Key:
661W or C6 cells [1] = test: MTT assay (protection against calcium-ionophore A23187); type: cell-based; settings: for percent protection against ionophore-induced loss of MTT signal at 0.0008 µM: 800 pM compound; for percent protection against ionophore-induced loss of MTT signal at 0.001 µM: 1 nM compound; for percent protection against ionophore-induced loss of MTT signal at 0.01 µM: 10 nM compound
Description: The compound 3-(4,5-Dimethylthiazol-2-yl)-2,5-diphenyltetrazolium bromide (MTT) is a tetrazolium ion that is reduced to a blue formazan dye via several families of NAD(P)H-dependent oxidoreductases. Formation of the formazan dye from MTT or other related tetrazolium dyes are commonly used as a viability assay even though, in fact, the assay is a metabolic capacity assay.
In this assay, 661W or C6 cells were maintained in DMEM supplemented with 10% FBS. 100 μL of 70,000 cells/mL cells were seeded into each well of 96 well plates using DMEM supplemented with 5% FBS. Cells were then allowed to grow to confluency for 48 hours. The compounds of the invention were added in 2 μL media and calcium-ionophore A23187 was then added in 1 μL for a final concentration of 1 μM and after 24 h, 20 uL of 2 μg/mL MTT were added to each well and the cells were incubated for another 4 h after which 100 μL of 1% SDS in 0.01 M aqueous HCl were added to each well and the plates were incubated overnight. Absorbance was measured at […] (background correction). The 1 μM ionophore A23187 caused about 50% loss in MTT signal at 24 h. Protection was calculated as the increase in absorbance of treatment groups normalized to the vehicle control.

661W or C6 cells [2] = test: XF FCCP-uncoupled oxygen consumption rate assay (IBMX challenge); type: cell-based; settings: 24 h; for activity at 0.1 µM: 100 nM compound; for activity at 0.01 µM: 10 nM compound
Description: XF FCCP-Uncoupled Oxygen Consumption Rate Assay
The XF FCCP-uncoupled oxygen consumption rate assay assesses mitochondrial capacity by measuring cellular respiration. It was shown that the maximum FCCP-uncoupled oxygen consumption rate (OCR) was a good estimate of maximal mitochondrial capacity (Beeson 2010) and that IBMX treatment of 661W or C6 cells for 24 h caused a loss in maximal uncoupled OCR (Perron 2013). Thus, cells were pretreated with the exemplified compounds for 1 h, added 600 μM IBMX and then measured the uncoupled rate after 24 h. The OCR measurements were performed using a Seahorse Bioscience XF instrument (Seahorse Bioscience, Billerica, Md.), as previously published (Perron 2013). O2 leakage through the plastic sides and bottom of the plate was accounted for using the AKOS algorithm in the XF software package. Cells were plated on 96- or 24-well custom plates designed for use in the XF and grown to confluency in DMEM+5% FBS (48 h). The medium was then replaced with DMEM+1% FBS for 24 h, along with any treatments.

[3] = system: rd1 mouse retinal explants (photoreceptors); test: Retinal degeneration assay (rd1 mouse retina organ cultures); type: cell-based; settings: explants cultured 11 days, rows of photoreceptors in ONL
Source text: Retinal Degeneration Assay
It was reasoned that the compounds' activities would enable them to protect against loss of photoreceptors in retinal degenerative animal models. As a translational bridge between the cell line-based assays and in vivo animal studies, mouse retina organ cultures were utilized. These retinal explants were a powerful ex vivo screening tool, which allowed the testing of photoreceptor cell survival within the retinal network, and the effects of a specific compound were tested like in an in vitro system, without systemic interference. In this assay, the rd1 mouse was utilized. The genotype of the rd1 mouse has a mutation in the β-subunit of the phosphodiesterase gene. […] The genetic deficit and the retinal pathology were very similar to that observed in the patients with βPDE-dependent RP. In these mice, rod photoreceptor degeneration started after postnatal day 10 (P10), progressing rapidly, such that at P21, only 1-2 rows of photoreceptor remained, mainly representing cones. Finally, the rd1 mouse retina was amenable to culturing, replicating both retinal development and degeneration, following the same time course as in vivo. […] At the end of the experiments, tissues were fixed, sectioned and stained with 0.1% toluidine and the numbers of rows of photoreceptors remaining in the outer nuclear layer (ONL) were counted.

[4] = system: Balb/c mice photoreceptors; test: Light model assay (constant light damage, eyedrops); type: in vivo, mouse; settings: 125 μM eyedrops once per day; continuous light 7 days; assessed 10 days after onset
Source text: The light model assay is generally accepted as a model of age related macular degeneration (AMD). […] In particular, oxidative damage has been detected by immunohistochemistry, detecting the presence of oxidized and tyrosine-phosphorylated proteins as well as the upregulation of endogenous antioxidants such as thioredoxin and glutathione peroxidase. […] Additional indirect evidence for the involvement of oxidative stress in photoreceptor degeneration has been provided by treatment of photodamaged retinas with antioxidants such as dimethylthiourea, or the treatment of N-methyl-N-nitrosourea (MNU)-challenged rats with the antioxidant DHA.
The light model assay was used to further test the therapeutic potential of the compounds of the invention. Photoreceptors from albino animals are very sensitive to constant light, lacking the RPE pigment to protect them. Thus, Balb/c mice were exposed to continuous light for 7 days, which caused loss of about 50% of the photoreceptor cells as measured via histology. To test the potential therapeutic efficacy, eyedrops were formulated in 0.1% Bij 35 in […], applied once or twice daily throughout the period of light exposure, and assessed their effect on the light-induced degeneration of photoreceptor cells morphologically and electrophysiologically, 10 days after the onset of the CL exposure.

[5] = 1 μM A23187, 24 h, read-out: MTT Protection(%, concentration)
[6] = 1 h pretreatment, 600 μM IBMX, read-out: XF FCCP OCR (% Ctrl, concentration)

CCOC(=O)c1cc(-c2ccccn2)nn1CC(=O)c1ccc(OC)cc1OC [Example 1, Ethyl 1-(2-(2,4-dimethoxyphenyl)-2-oxoethyl)-3-(pyridin-2-yl)-1H-pyrazole-5-carboxylate]
percent protection against ionophore-induced loss of MTT signal at 0.0008 µM (661W or C6 cells [1]; [5]): 10.4%
activity at 1 µM (661W or C6 cells [2]; 1 uM compound, 1 h pretreatment, 600 μM IBMX, read-out: XF FCCP OCR (% Ctrl, concentration)): 58%

CCOC(=O)c1cc(-c2ccccn2)n(CC(=O)c2ccc(OC)cc2OC)n1 [Example 2, Ethyl 1-(2-(2,4-dimethoxyphenyl)-2-oxoethyl)-5-(pyridin-2-yl)-1H-pyrazole-3-carboxylate]
percent protection against ionophore-induced loss of MTT signal at 0.0008 µM (661W or C6 cells [1]; [5]): 73.9%
rd1 protection (concentration, # of rows) ([3]; 20 nM): 20 nM 4.46 # of rows
activity at 0.1 µM (661W or C6 cells [2]; [6]): 62%

CCOC(=O)c1cc(-c2cccnc2)nn1CC(=O)c1cc(OC)ccc1OC [Example 3, Ethyl 1-(2-(2,5-dimethoxyphenyl)-2-oxoethyl)-3-(pyridin-3-yl)-1H-pyrazole-5-carboxylate]
percent protection against ionophore-induced loss of MTT signal at 0.001 µM (661W or C6 cells [1]; [5]): 43.5%

CCOC(=O)c1cc([Si](C)(C)C)nn1CC(=O)c1ccc(OC)cc1OC [Example 4, Ethyl 1-(2-(2,4-dimethoxyphenyl)-2-oxoethyl)-3-(trimethylsilyl)-1H-pyrazole-5-carboxylate]
percent protection against ionophore-induced loss of MTT signal at 0.01 µM (661W or C6 cells [1]; [5]): 87%
rd1 protection (concentration, # of rows) ([3]; 10 nM): 10 nM 3.2 # of rows
activity at 0.01 µM (661W or C6 cells [2]; [6]): 67%
LD Protection (concentration, # of rows) [4]: 125 μM 6.42 # of rows

CCOC(=O)c1cc([Si](C)(C)C)nn1CC(=O)c1cc(OC)ccc1OC [Example 5, Ethyl 1-(2-(2,5-dimethoxyphenyl)-2-oxoethyl)-3-(trimethylsilyl)-1H-pyrazole-5-carboxylate]
percent protection against ionophore-induced loss of MTT signal at 0.01 µM (661W or C6 cells [1]; [5]): 76.6%
activity at 0.01 µM (661W or C6 cells [2]; [6]): 72%

CCOC(=O)c1cc(-c2ccccn2)nn1Cc1cccnc1 [Example 6, Ethyl 3-(pyridin-2-yl)-1-(pyridin-3-ylmethyl)-1H-pyrazole-5-carboxylate]
percent protection against ionophore-induced loss of MTT signal at 0.01 µM (661W or C6 cells [1]; [5]): 73.5%
activity at 0.01 µM (661W or C6 cells [2]; [6]): 75%

CCOC(=O)c1cc([Si](C)(C)C)nn1Cc1cc(OC)c(OC)c(OC)c1 [Example 7, Ethyl 1-(3,4,5-trimethoxybenzyl)-3-(trimethylsilyl)-1H-pyrazole-5-carboxylate]
percent protection against ionophore-induced loss of MTT signal at 0.01 µM (661W or C6 cells [1]; [5]): 40%

CCOC(=O)c1cc(-c2cccnc2)nn1CC(=O)c1ccc(OC)cc1OC [Example 8, Ethyl 1-(2-(2,4-dimethoxyphenyl)-2-oxoethyl)-3-(pyridin-3-yl)-1H-pyrazole-5-carboxylate]
percent protection against ionophore-induced loss of MTT signal at 0.001 µM (661W or C6 cells [1]; [5]): 75.6%
activity at 0.1 µM (661W or C6 cells [2]; [6]): 64%

CCOC(=O)c1cc([Si](C)(C)C)n(CC(=O)c2cccnc2)n1 [Example 9, Ethyl 1-(2-oxo-2-(pyridin-3-yl)ethyl)-5-(trimethylsilyl)-1H-pyrazole-3-carboxylate]
percent protection against ionophore-induced loss of MTT signal at 0.001 µM (661W or C6 cells [1]; [5]): 59%
activity at 0.1 µM (661W or C6 cells [2]; [6]): 67%

CCOC(=O)c1cc([Si](C)(C)C)nn1CC(=O)c1cccnc1 [Example 10, Ethyl 1-(2-oxo-2-(pyridin-3-yl)ethyl)-3-(trimethylsilyl)-1H-pyrazole-5-carboxylate]
percent protection against ionophore-induced loss of MTT signal at 0.001 µM (661W or C6 cells [1]; [5]): 47.8%

CCOC(=O)c1cc(-c2ccccn2)nn1CC(=O)c1cc(OC)ccc1OC [Example 11, Ethyl 1-(2-(2,5-dimethoxyphenyl)-2-oxoethyl)-3-(pyridin-2-yl)-1H-pyrazole-5-carboxylate]
percent protection against ionophore-induced loss of MTT signal at 1 µM (661W or C6 cells [1]; 1 μM compound, 1 μM A23187, 24 h, read-out: MTT Protection(%, concentration)): 28.3%

CCOC(=O)c1cc(C(C)C)nn1Cc1c[nH]c2ccccc12 [Example 12, Ethyl 1-((1H-indol-3-yl)methyl)-3-isopropyl-1H-pyrazole-5-carboxylate]
percent protection against ionophore-induced loss of MTT signal at 0.001 µM (661W or C6 cells [1]; [5]): 59.4%

CNc1ccc2oc(C[C@H]3O[C@@]4(CC[C@H]3C)O[C@H]([C@H](C)C(=O)c3ccc[nH]3)[C@H](C)C[C@H]4C)nc2c1C(=O)O [Example A23187, reference compound]
loss in MTT signal (661W or C6 cells [1]; 1 μM ionophore alone, 24 h): about 50%

CC(C)Cn1c(=O)n(C)c(=O)c2[nH]cnc21 [IBMX, reference compound]
decrease in the uncoupled rate (OCR) (661W or C6 cells [2]; IBMX treatment alone, 600 μM): ~50%
